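How tested: cells in 96-well plates exposed to compound for 48 hours at five concentrations. At the TGI there is no net growth.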
Columns and labels:
Assay in all cases: NCI anticancer screen, dose series, 48 h
786-0 renal = tested on: 786-0 renal
A498 renal = tested on: A498 renal
A549 NSCLC = tested on: A549 NSCLC
ACHN renal = tested on: ACHN renal
BT-549 breast = tested on: BT-549 breast
CCRF-CEM leukemia = tested on: CCRF-CEM leukemia
COLO 205 colon = tested on: COLO 205 colon
DU-145 prostate = tested on: DU-145 prostate
EKVX NSCLC = tested on: EKVX NSCLC
HCC-2998 colon = tested on: HCC-2998 colon
HCT-116 colon = tested on: HCT-116 colon
HCT-15 colon = tested on: HCT-15 colon
HL-60(TB) leukemia = tested on: HL-60(TB) leukemia
HOP-62 NSCLC = tested on: HOP-62 NSCLC
HOP-92 NSCLC = tested on: HOP-92 NSCLC
HT29 colon = tested on: HT29 colon
IGROV1 ovarian = tested on: IGROV1 ovarian
K-562 leukemia = tested on: K-562 leukemia
LOX IMVI melanoma = tested on: LOX IMVI melanoma
M14 melanoma = tested on: M14 melanoma
MALME-3M melanoma = tested on: MALME-3M melanoma
MCF7 breast = tested on: MCF7 breast
MDA-MB-231 breast = tested on: MDA-MB-231 breast
MDA-MB-435 = tested on: MDA-MB-435
MDA-N = tested on: MDA-N
MOLT-4 leukemia = tested on: MOLT-4 leukemia
NCI-H226 lung = tested on: NCI-H226 lung
NCI-H23 lung = tested on: NCI-H23 lung
NCI-H460 lung = tested on: NCI-H460 lung
NCI/ADR-RES ovarian = tested on: NCI/ADR-RES ovarian
OVCAR-3 ovarian = tested on: OVCAR-3 ovarian
OVCAR-4 ovarian = tested on: OVCAR-4 ovarian
OVCAR-5 ovarian = tested on: OVCAR-5 ovarian
OVCAR-8 ovarian = tested on: OVCAR-8 ovarian
PC-3 prostate = tested on: PC-3 prostate
RPMI-8226 leukemia = tested on: RPMI-8226 leukemia
SF-268 CNS = tested on: SF-268 CNS
SF-295 CNS = tested on: SF-295 CNS
SK-MEL-28 melanoma = tested on: SK-MEL-28 melanoma
SK-MEL-5 melanoma = tested on: SK-MEL-5 melanoma
SK-OV-3 ovarian = tested on: SK-OV-3 ovarian
SN12C renal = tested on: SN12C renal
SNB-19 CNS = tested on: SNB-19 CNS
SNB-75 CNS = tested on: SNB-75 CNS
SR leukemia = tested on: SR leukemia
SW-620 colon = tested on: SW-620 colon
T-47D breast = tested on: T-47D breast
TK-10 renal = tested on: TK-10 renal
U251 CNS = tested on: U251 CNS
UACC-257 melanoma = tested on: UACC-257 melanoma
UACC-62 melanoma = tested on: UACC-62 melanoma
UO-31 renal = tested on: UO-31 renal
CAKI-1 renal = tested on: CAKI-1 renal
KM12 colon = tested on: KM12 colon
NCI-H522 lung = tested on: NCI-H522 lung
RXF 393 renal = tested on: RXF 393 renal
SF-539 CNS = tested on: SF-539 CNS

In the case of `N=C(N)C1CN(CC=O)C(=O)NC1=O` (stereo not drawn), the TGI (786-0 renal) is reported as over 100 µM, the TGI (A498 renal) is reported as over 100 µM and the TGI (A549 NSCLC) is reported as over 100 µM. It also gave a TGI (ACHN renal) of over 100 µM, a TGI (BT-549 breast) of over 100 µM and a TGI (CCRF-CEM leukemia) of over 100 µM. The TGI (COLO 205 colon) was over 100 µM, the TGI (DU-145 prostate) was over 100 µM and the TGI (EKVX NSCLC) was over 100 µM. It also gave a TGI (HCC-2998 colon) of over 100 µM, a TGI (HCT-116 colon) of over 100 µM and a TGI (HCT-15 colon) of over 100 µM. For the same compound, the TGI (HL-60(TB) leukemia) was over 100 µM, the TGI (HOP-62 NSCLC) was over 100 µM and the TGI (HOP-92 NSCLC) was over 100 µM. The TGI (HT29 colon) was over 100 µM, the TGI (IGROV1 ovarian) was over 100 µM and the TGI (K-562 leukemia) was over 100 µM. For the same compound, the TGI (LOX IMVI melanoma) was over 100 µM, the TGI (M14 melanoma) was over 100 µM and the TGI (MALME-3M melanoma) was over 100 µM. For the same compound, the TGI (MCF7 breast) was over 100 µM, the TGI (MDA-MB-231 breast) was over 100 µM and the TGI (MDA-MB-435) was over 100 µM. For the same compound, the TGI (MDA-N) was over 100 µM, the TGI (MOLT-4 leukemia) was over 100 µM and the TGI (NCI-H226 lung) was over 100 µM. The TGI (NCI-H23 lung) was over 100 µM, the TGI (NCI-H460 lung) was over 100 µM and the TGI (NCI/ADR-RES ovarian) was over 100 µM. It also gave a TGI (OVCAR-3 ovarian) of over 100 µM, a TGI (OVCAR-4 ovarian) of over 100 µM and a TGI (OVCAR-5 ovarian) of over 100 µM. For the same compound, the TGI (OVCAR-8 ovarian) was over 100 µM, the TGI (PC-3 prostate) was over 100 µM and the TGI (RPMI-8226 leukemia) was over 100 µM. For the same compound, the TGI (SF-268 CNS) was over 100 µM, the TGI (SF-295 CNS) was over 100 µM and the TGI (SK-MEL-28 melanoma) was over 100 µM. For the same compound, the TGI (SK-MEL-5 melanoma) was over 100 µM, the TGI (SK-OV-3 ovarian) was over 100 µM and the TGI (SN12C renal) was over 100 µM. The TGI (SNB-19 CNS) was over 100 µM, the TGI (SNB-75 CNS) was over 100 µM and the TGI (SR leukemia) was over 100 µM. The TGI (SW-620 colon) was over 100 µM, the TGI (T-47D breast) was over 100 µM and the TGI (TK-10 renal) was over 100 µM. It also gave a TGI (U251 CNS) of over 100 µM, a TGI (UACC-257 melanoma) of over 100 µM and a TGI (UACC-62 melanoma) of over 100 µM. It also gave a TGI (UO-31 renal) of over 100 µM.
In the case of `C=C(Cl)C(Br)(CBr)CCC(Br)C(C)(C)Br` (stereo not drawn), the TGI (786-0 renal) is reported as 3.08 µM, the TGI (A498 renal) is reported as over 10 µM and the TGI (A549 NSCLC) is reported as over 10 µM. The TGI (ACHN renal) was over 10 µM, the TGI (BT-549 breast) was over 10 µM and the TGI (CAKI-1 renal) was over 10 µM. For the same compound, the TGI (CCRF-CEM leukemia) was over 10 µM, the TGI (COLO 205 colon) was over 10 µM and the TGI (DU-145 prostate) was over 10 µM. For the same compound, the TGI (EKVX NSCLC) was over 10 µM, the TGI (HCC-2998 colon) was over 10 µM and the TGI (HCT-116 colon) was 3.92 µM. The TGI (HL-60(TB) leukemia) was over 1 µM, the TGI (HOP-62 NSCLC) was over 10 µM and the TGI (HOP-92 NSCLC) was over 10 µM. The TGI (HT29 colon) was over 10 µM, the TGI (IGROV1 ovarian) was 3.68 µM and the TGI (K-562 leukemia) was over 10 µM. It also gave a TGI (KM12 colon) of over 10 µM, a TGI (M14 melanoma) of over 10 µM and a TGI (MCF7 breast) of 5.32 µM. For the same compound, the TGI (MDA-MB-231 breast) was 3.38 µM, the TGI (MDA-MB-435) was over 10 µM and the TGI (MDA-N) was over 10 µM. The TGI (MOLT-4 leukemia) was over 10 µM, the TGI (NCI-H226 lung) was over 10 µM and the TGI (NCI-H23 lung) was over 10 µM. It also gave a TGI (NCI-H522 lung) of over 10 µM, a TGI (OVCAR-3 ovarian) of over 10 µM and a TGI (OVCAR-4 ovarian) of over 10 µM. The TGI (OVCAR-5 ovarian) was over 10 µM, the TGI (OVCAR-8 ovarian) was over 1 µM and the TGI (PC-3 prostate) was over 10 µM. The TGI (RPMI-8226 leukemia) was 4.96 µM, the TGI (RXF 393 renal) was 7.86 µM and the TGI (SF-268 CNS) was 6.25 µM. For the same compound, the TGI (SF-295 CNS) was over 10 µM, the TGI (SF-539 CNS) was 4.92 µM and the TGI (SK-MEL-28 melanoma) was over 10 µM. For the same compound, the TGI (SK-MEL-5 melanoma) was over 10 µM, the TGI (SK-OV-3 ovarian) was over 10 µM and the TGI (SN12C renal) was over 10 µM. For the same compound, the TGI (SNB-19 CNS) was over 10 µM, the TGI (SNB-75 CNS) was over 10 µM and the TGI (SR leukemia) was over 1 µM. It also gave a TGI (SW-620 colon) of 9.33 µM, a TGI (T-47D breast) of over 1 µM and a TGI (TK-10 renal) of over 10 µM. The TGI (U251 CNS) was over 10 µM, the TGI (UACC-62 melanoma) was over 10 µM and the TGI (UO-31 renal) was over 10 µM.

— PubChem BioAssay (NCI)
